Patent US20240122926A1, “APELIN RECEPTOR MODULATORS FOR TREATING MUSCLE CONDITIONS” (priority 2022, published 2024)
Read-outs that look alike come from different tables or passages of the source.

Legend:
mouse APLNR = molecular target: T1, mouse APLNR (Mus musculus, UniProt Q9WV08); test: PathHunter β-arrestin eXpress GPCR assay, CHO cells stably expressing mouse APLNR; format: cell-based; details: for Emax: CHO
T1 construct: host or cells: CHO cells
T1 sequence (Q9WV08 1-377): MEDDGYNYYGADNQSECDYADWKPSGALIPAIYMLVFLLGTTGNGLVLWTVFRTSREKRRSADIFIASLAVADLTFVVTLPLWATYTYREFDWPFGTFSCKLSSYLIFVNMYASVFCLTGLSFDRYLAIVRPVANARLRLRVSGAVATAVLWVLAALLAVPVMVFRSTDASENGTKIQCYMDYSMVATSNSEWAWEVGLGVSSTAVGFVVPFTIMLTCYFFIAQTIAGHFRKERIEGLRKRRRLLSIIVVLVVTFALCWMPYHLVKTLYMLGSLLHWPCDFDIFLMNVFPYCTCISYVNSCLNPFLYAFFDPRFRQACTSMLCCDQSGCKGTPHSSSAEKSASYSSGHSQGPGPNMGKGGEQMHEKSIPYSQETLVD
Protocol: APLNR activation was determined by β-arrestin recruitment as measured by the ProLink […] complementation technology (93-0001, DiscoveRx). In brief, CHO cells stably expressing APLNR were seeded and incubated overnight at 37° C. The compounds were tested in duplicate and diluted to obtain a 10-point curve with 3-fold serial dilutions (<1% DMSO). The compounds and cells were incubated for 3 hours at 37° C. After the incubation period the detection reagents were added and the plate chemiluminescent signal was measured after 30 min at RT.

[1] = 14-day IV study in rat (toxicology exposure); format: in vivo
Protocol: The updated exposure margins considering the highest maximum exposures in rats and dogs are calculated as follows: maximum exposure in the rat (male) was in the 14-day IV study and at the 300 mg/kg dose, the AUClast is 1070 μg*hr/mL; maximum exposure in dogs occurred at the 300 mg/kg dose in the 9-month oral toxicity study and the AUClast is 1310*μg·hr/mL.

[2] = system: healthy volunteers aged ≥65 years; test: Phase 1b bed rest study, ultrasound muscle quality grade (echo density); format: in vivo, human
Protocol: One day before (baseline, D-1) and 5 (D5) and 10 (D10) days after initiation of bed rest, key muscle atrophy endpoints were measured: thigh circumference; cross-sectional area (CSA) and A-P diameter of vastus lateralis (ultrasound); ultrasound muscle quality grade, an index that quantifies fatty degeneration in muscle (ultrasound echo density); and muscle protein synthesis rate (biopsy). Parameters measured during the 10-day bed rest period include thigh circumference, muscle size, muscle quality (e.g., fatty degeneration), and muscle protein synthetic rate.
The echo density measurements showing the number of patients receiving an ultrasound muscle quality grading scale using a numerical grading system of grade 1 or a grade 2 classifying fatty muscle atrophy by measuring fatty infiltration of the muscle fibers of a biopsy from the patient. […] Open box represents normal muscle (grade 1), and striped box represents muscle that contains some fatty streaks (grade 2). […] (p=0.0019).

serum proteome = test: Phase 1b bed rest study, serum proteomic profiling; format: in vivo, human
Protocol: Proteomic profiling and analysis were performed on serum collected from the phase 1B clinical trial subjects (treated vs placebo) as described above. Eleven (11) treated and 10 placebo subject's serum levels were profiled for their proteomics collected at day −1 (baseline), day 5 and day 11. A linear regression model was implemented with an interaction term between treatment group and day to identify proteins whose differential abundance between the treatment groups influenced the average rate of change per day of a given protein. This model was fit separately for all proteins measured, and the resulting coefficient (on the interaction term) for each protein was used to rank order all proteins from most positive to most negative coefficient.
For each human aging cohort phenotype (various physical function phenotypes and mortality), two protein sets consisting respectively (to preserve directionality) of the proteins positively and negatively associated (p<0.05) with that phenotype. Significant phenotypes in the right-hand graph of FIG. 48 and FIG. 49 with their GSEA plots and p-values (significant phenotypes were not shown when their protein sets overlapped substantially with those of already shown phenotypes).

[3] = system: fast and slow skeletal muscle; test: snRNAseq of vastus lateralis muscle biopsies from Phase 1b study; format: in vivo, human
Source text: FIG. 40 illustrates nuclei isolation for 10× Genomics single cell transcriptome gene expression technology used to assess tissue samples. […] Tissue samples were collected from patients and processed in a laboratory. Tissues were dissociated and cleaned up. The debris were removed and the sample (e.g., nuclei) was washed, resuspended for multiple cycles according to routine tissue processing procedures. Cell nuclei were visualized and counted using standard transcriptome gene expression technologies 10× Genomics single cell library technology is used for assessing tissue samples.
Cell type clustered include fast skeletal muscle, slow skeletal muscle (type 1), myofibroblast, tenocytes, fibroblasts, muscle stem cells, pericytes, smooth muscle, endothelial cells, T/NK cells, and adipocytes. Two methods and two annotations were used.

Compound `COc1cccc(OC)c1-n1c(NS(=O)(=O)[C@@H](C)[C@H](C)c2ncc(C)cn2)nnc1-c1cncc(C)c1` [BGE-105, (2S,3R)—N-(4-(2,6-dimethoxyphenyl)-5-(5-methyl-3-pyridinyl)-4H-1,2,4-triazol-3-yl)-3-(5-methyl-2-pyrimidinyl)-2-butanesulfonamide] has an EC50 (mouse APLNR) of 0.8 nM, an Emax (mouse APLNR; read-out: maximum effect (Emax)) of 65% and an Emax (mouse APLNR; read-out: maximum effect (Emax), replication) of 60%. For the same compound, the “predicted human exposure margin Human:Rat” value ([1]; 240 mg loading dose + 1440 mg IV for 22 hours, 1036/1070) was 0.97, the AUC(0-t) ([1]; in vivo, rat (male), 14-day IV study, 300 mg/kg, read-out: AUClast, maximum exposure) was 1070 µg·h/mL and the NOAEL ([1]; rat) was “maximum dose tested”. The “Muscle grade (progression), number of subjects out of 11” value ([2]; 240 mg daily (cohort MD 1B), 10-day bed rest) was 1, the “number of patients (out of 11) moving to / worsening to ultrasound muscle quality grade 2” value ([2]; after 10 days of bed rest (placebo 8 of 10)) was 1 and the “number of proteins associated with grip strength (out of 379) changed by treatment” value (serum proteome) was 58. The “number of proteins associated with walk speed (out of 526) changed by treatment” value (serum proteome) was 35, the “number of proteins associated with frailty (out of 992) changed by treatment” value (serum proteome; p<0.05) was 69 and the “number of muscle proteins (out of 18) statistically highly expressed in fast skeletal muscle” value ([3]; treated compared to placebo) was 15. The “differentially expressed genes associated with treatment, fast skeletal muscle” value ([3]; vastus lateralis biopsies) was 3418 and the “differentially expressed genes associated with treatment, slow skeletal muscle (Type 1)” value ([3]; vastus lateralis biopsies) was 1571.
